Patent US5919756A, “Amides” (Eli Lilly and Company, priority 1997, dated 1999)
≈ marks a conversion by molar mass, not a printed value.

What was measured:
Type in all cases: cell-based
[1] = system: Staphylococcus aureus 446; test: Broth micro-dilution MIC, SA 446; conditions: unit assumed
Method: (§1) The antibacterial efficacy of the present compounds is illustrated in TABLE 2. The minimal inhibitory concentrations (MICs) were determined using a standard broth micro-dilution assay.

[2] = system: Enterococcus, Resistant (4-6 isolates); test: Enterococcus screen, broth micro-dilution MIC, resistant isolates; set-up: unit not given here; conditions: mean of 4-6 isolates
Method: as §1

[3] = system: Staphylococcus haemolyticus 105; test: Broth micro-dilution MIC, SH 105; conditions: unit assumed
Method: as §1

[4] = system: Staphylococcus haemolyticus 415; test: Broth micro-dilution MIC, SH 415; conditions: unit assumed
Method: as §1

[5] = system: Streptococcus pyogenes 203; test: Broth micro-dilution MIC, S PY 203; conditions: unit assumed
Method: as §1

[6] = system: Enterococcus, Sensitive (4-6 isolates); test: Enterococcus screen, broth micro-dilution MIC, sensitive isolates; set-up: unit not given here; conditions: mean of 4-6 isolates
Method: as §1

[7] = system: Streptococcus pneumoniae P1; test: Broth micro-dilution MIC, S PN P1; conditions: unit assumed
Method: as §1

[8] = system: Staphylococcus epidermis 270; test: Broth micro-dilution MIC, SE 270; conditions: unit assumed
Method: as §1

[9] = system: Staphylococcus aureus 489; test: Broth micro-dilution MIC, SA 489; conditions: unit assumed
Method: as §1

[10] = system: Staphylococcus aureus 447; test: Broth micro-dilution MIC, SA 447; conditions: unit assumed
Method: as §1

CNC(CC(C)C)C(=O)NC1C(=O)NC(CC(N)=O)C(=O)NC2C(=O)NC3C(=O)NC(C(=O)NC(C(=O)NCCc4ccccc4)c4cc(O)cc(O)c4-c4cc3ccc4O)C(OC3CC(C)(N)C(O)C(C)O3)c3ccc(c(Cl)c3)Oc3cc2cc(c3OC2OC(CO)C(O)C(O)C2OC2CC(C)(NCc3ccc(-c4ccccc4)cc3)C(O)C(C)O2)Oc2ccc(cc2Cl)C1O.Cl (centres unmarked) [Example 18, N^4-(4-phenylbenzyl)A82846B, phenethylamide, HCl salt]
MIC, SA 446 [1]: 1 µg/mL
Minimum Inhibitory Concentrations (MICs), Mean Values of 4-6 Isolates, Resistant [2]: 0.84
MIC, SH105 [3]: 2 µg/mL
MIC, SH415 [4]: 2 µg/mL
MIC, S PY 203 [5]: ≤ 0.06 µg/mL
Minimum Inhibitory Concentrations (MICs), Mean Values of 4-6 Isolates, Sensitive [6]: 0.19
MIC, S PN P1 [7]: ≤ 0.06 µg/mL
MIC, SE270 [8]: 1 µg/mL
MIC, SA 489 [9]: 2 µg/mL
MIC, SA 447 [10]: 1 µg/mL

N^4 -(4-phenoxybenzyl)A82846B, benzylamide, trifiuoroacetate salt [Example 9]
MIC, SA 446 [1]: 1 µg/mL
Minimum Inhibitory Concentrations (MICs), Mean Values of 4-6 Isolates, Resistant [2]: 2
MIC, SH105 [3]: 1 µg/mL
MIC, SH415 [4]: 1 µg/mL
MIC, S PY 203 [5]: ≤ 0.06 µg/mL
Minimum Inhibitory Concentrations (MICs), Mean Values of 4-6 Isolates, Sensitive [6]: 0.082
MIC, S PN P1 [7]: ≤ 0.06 µg/mL
MIC, SE270 [8]: 0.5 µg/mL
MIC, SA 489 [9]: 1 µg/mL
MIC, SA 447 [10]: 1 µg/mL

CNC(CC(C)C)C(=O)NC1C(=O)NC(CC(N)=O)C(=O)NC2C(=O)NC3C(=O)NC(C(=O)NC(C(=O)NCc4ccccc4)c4cc(O)cc(O)c4-c4cc3ccc4O)C(OC3CC(C)(N)C(O)C(C)O3)c3ccc(c(Cl)c3)Oc3cc2cc(c3OC2OC(CO)C(O)C(O)C2OC2CC(C)(NCc3ccc(-c4ccccc4)cc3)C(O)C(C)O2)Oc2ccc(cc2Cl)C1O.Cl (centres unmarked) [Example 11, N^4-(4-phenylbenzyl)A82846B, benzylamide, HCl salt]
MIC, SA 446 [1]: 4 µg/mL
Minimum Inhibitory Concentrations (MICs), Mean Values of 4-6 Isolates, Resistant [2]: 1
MIC, SH105 [3]: 1 µg/mL
MIC, SH415 [4]: 1 µg/mL
MIC, S PY 203 [5]: ≤ 0.06 µg/mL
Minimum Inhibitory Concentrations (MICs), Mean Values of 4-6 Isolates, Sensitive [6]: 0.11
MIC, S PN P1 [7]: ≤ 0.06 µg/mL
MIC, SE270 [8]: 1 µg/mL
MIC, SA 489 [9]: 1 µg/mL
MIC, SA 447 [10]: 1 µg/mL

N^4 -(4-PHENOXYBENZYL)A82846B, 3-(DIMETHYLAMINO)PROPYLAMIDE, TRIFLUOROACETATE SALT [Example 1]
MIC, SA 446 [1]: 4 µg/mL
Minimum Inhibitory Concentrations (MICs), Mean Values of 4-6 Isolates, Resistant [2]: 1.4
MIC, SH105 [3]: 2 µg/mL
MIC, SH415 [4]: 2 µg/mL
MIC, S PY 203 [5]: ≤ 0.06 µg/mL
Minimum Inhibitory Concentrations (MICs), Mean Values of 4-6 Isolates, Sensitive [6]: 0.13
MIC, S PN P1 [7]: ≤ 0.125 µg/mL
MIC, SE270 [8]: 0.25 µg/mL
MIC, SA 489 [9]: 2 µg/mL
MIC, SA 447 [10]: 1 µg/mL

N^4 -(4-phenylbenzyl)A82846B, methylamide, trifluoroacetate salt [Example 2]
MIC, SA 446 [1]: 1 µg/mL
Minimum Inhibitory Concentrations (MICs), Mean Values of 4-6 Isolates, Resistant [2]: 1.19
MIC, SH105 [3]: 0.125 µg/mL
MIC, SH415 [4]: 0.25 µg/mL
MIC, S PY 203 [5]: ≤ 0.06 µg/mL
Minimum Inhibitory Concentrations (MICs), Mean Values of 4-6 Isolates, Sensitive [6]: 0.041
MIC, S PN P1 [7]: ≤ 0.06 µg/mL
MIC, SE270 [8]: ≤ 0.06 µg/mL
MIC, SA 489 [9]: 1 µg/mL
MIC, SA 447 [10]: 0.5 µg/mL

CNC(CC(C)C)C(=O)NC1C(=O)NC(CC(N)=O)C(=O)NC2C(=O)NC3C(=O)NC(C(=O)NC(C(=O)NCc4ccccc4)c4cc(O)cc(O)c4-c4cc3ccc4O)C(OC3CC(C)(N)C(O)C(C)O3)c3ccc(c(Cl)c3)Oc3cc2cc(c3OC2OC(CO)C(O)C(O)C2OC2CC(C)(N)C(O)C(C)O2)Oc2ccc(cc2Cl)C1O.O=C(O)C(F)(F)F (centres unmarked) [Example 24, A82846B, benzylamide, trifluoroacetate salt]
MIC, SA 446 [1]: ≤ 0.06 µg/mL
Minimum Inhibitory Concentrations (MICs), Mean Values of 4-6 Isolates, Resistant [2]: > 128
MIC, SH105 [3]: ≤ 0.06 µg/mL
MIC, SH415 [4]: ≤ 0.06 µg/mL
MIC, S PY 203 [5]: ≤ 0.06 µg/mL
Minimum Inhibitory Concentrations (MICs), Mean Values of 4-6 Isolates, Sensitive [6]: 0.38
MIC, S PN P1 [7]: ≤ 0.06 µg/mL
MIC, SE270 [8]: ≤ 0.06 µg/mL
MIC, SA 489 [9]: ≤ 0.06 µg/mL
MIC, SA 447 [10]: ≤ 0.06 µg/mL

N^4 -(4-phenylbenzyl)A82846B, butylamide, trifluoroacetate salt [Example 3]
MIC, SA 446 [1]: 2 µg/mL
Minimum Inhibitory Concentrations (MICs), Mean Values of 4-6 Isolates, Resistant [2]: 2.4
MIC, SH105 [3]: 0.5 µg/mL
MIC, SH415 [4]: 2 µg/mL
MIC, S PY 203 [5]: ≤ 0.06 µg/mL
Minimum Inhibitory Concentrations (MICs), Mean Values of 4-6 Isolates, Sensitive [6]: 0.11
MIC, S PN P1 [7]: ≤ 0.06 µg/mL
MIC, SE270 [8]: 1 µg/mL
MIC, SA 489 [9]: 4 µg/mL
MIC, SA 447 [10]: 2 µg/mL

CNC(CC(C)C)C(=O)NC1C(=O)NC(CC(N)=O)C(=O)NC2C(=O)NC3C(=O)NC(C(=O)NC(C(=O)NCCCc4ccccc4)c4cc(O)cc(O)c4-c4cc3ccc4O)C(OC3CC(C)(N)C(O)C(C)O3)c3ccc(c(Cl)c3)Oc3cc2cc(c3OC2OC(CO)C(O)C(O)C2OC2CC(C)(N)C(O)C(C)O2)Oc2ccc(cc2Cl)C1O (centres unmarked) [Example 20, A82846B, (3-phenyl-n-propyl) amide]
MIC, SA 446 [1]: 0.125 µg/mL (≈ 0.0731 µM)
Minimum Inhibitory Concentrations (MICs), Mean Values of 4-6 Isolates, Resistant [2]: 11
MIC, SH105 [3]: 0.125 µg/mL (≈ 0.0731 µM)
MIC, SH415 [4]: 0.25 µg/mL (≈ 0.146 µM)
MIC, S PY 203 [5]: ≤ 0.06 µg/mL
Minimum Inhibitory Concentrations (MICs), Mean Values of 4-6 Isolates, Sensitive [6]: 0.22
MIC, S PN P1 [7]: ≤ 0.06 µg/mL
MIC, SE270 [8]: ≤ 0.06 µg/mL
MIC, SA 489 [9]: ≤ 0.06 µg/mL
MIC, SA 447 [10]: ≤ 0.06 µg/mL

CNC(CC(C)C)C(=O)NC1C(=O)NC(CC(N)=O)C(=O)NC2C(=O)NC3C(=O)NC(C(=O)NC(C(=O)NCCc4ccccc4)c4cc(O)cc(O)c4-c4cc3ccc4O)C(OC3CC(C)(N)C(O)C(C)O3)c3ccc(c(Cl)c3)Oc3cc2cc(c3OC2OC(CO)C(O)C(O)C2OC2CC(C)(NCc3ccc(-c4ccc(C)cc4)cc3)C(O)C(C)O2)Oc2ccc(cc2Cl)C1O (centres unmarked) [Example 19, N^4-(4-(4-methylphenyl)benzyl)-A82846B, phenethylamide]
MIC, SA 446 [1]: 2 µg/mL (≈ 1.07 µM)
Minimum Inhibitory Concentrations (MICs), Mean Values of 4-6 Isolates, Resistant [2]: 1
MIC, SH105 [3]: 2 µg/mL (≈ 1.07 µM)
MIC, SH415 [4]: 4 µg/mL (≈ 2.13 µM)
MIC, S PY 203 [5]: ≤ 0.06 µg/mL
Minimum Inhibitory Concentrations (MICs), Mean Values of 4-6 Isolates, Sensitive [6]: 0.22
MIC, S PN P1 [7]: ≤ 0.06 µg/mL
MIC, SE270 [8]: 2 µg/mL (≈ 1.07 µM)
MIC, SA 489 [9]: 2 µg/mL (≈ 1.07 µM)
MIC, SA 447 [10]: 4 µg/mL (≈ 2.13 µM)

N^4 -(4-phenylbenzy1)A82846B, DL-(2-furanon-3-yl)amide [Example 7]
MIC, SA 446 [1]: 2 µg/mL
Minimum Inhibitory Concentrations (MICs), Mean Values of 4-6 Isolates, Resistant [2]: 1.7
MIC, SH105 [3]: 0.5 µg/mL
MIC, SH415 [4]: 1 µg/mL
MIC, S PY 203 [5]: ≤ 0.06 µg/mL
Minimum Inhibitory Concentrations (MICs), Mean Values of 4-6 Isolates, Sensitive [6]: 0.048
MIC, S PN P1 [7]: ≤ 0.06 µg/mL
MIC, SE270 [8]: 0.5 µg/mL
MIC, SA 489 [9]: 1 µg/mL
MIC, SA 447 [10]: 2 µg/mL

CNC(CC(C)C)C(=O)NC1C(=O)NC(CC(N)=O)C(=O)NC2C(=O)NC3C(=O)NC(C(=O)NC(C(=O)NCc4ccccc4)c4cc(O)cc(O)c4-c4cc3ccc4O)C(OC3CC(C)(N)C(O)C(C)O3)c3ccc(c(Cl)c3)Oc3cc2cc(c3OC2OC(CO)C(O)C(O)C2OC2CC(C)(NCc3ccc(-c4ccccc4)cc3)C(O)C(C)O2)Oc2ccc(cc2Cl)C1O (centres unmarked) [Example 10, N^4-(4-phenylbenzyl)A82846B, benzylamide]
MIC, SA 446 [1]: 1 µg/mL (≈ 0.541 µM)
Minimum Inhibitory Concentrations (MICs), Mean Values of 4-6 Isolates, Resistant [2]: 0.84
MIC, SH105 [3]: 0.5 µg/mL (≈ 0.271 µM)
MIC, SH415 [4]: 4 µg/mL (≈ 2.16 µM)
MIC, S PY 203 [5]: ≤ 0.06 µg/mL
Minimum Inhibitory Concentrations (MICs), Mean Values of 4-6 Isolates, Sensitive [6]: 0.14
MIC, S PN P1 [7]: ≤ 0.06 µg/mL
MIC, SE270 [8]: 0.5 µg/mL (≈ 0.271 µM)
MIC, SA 489 [9]: 4 µg/mL (≈ 2.16 µM)
MIC, SA 447 [10]: 2 µg/mL (≈ 1.08 µM)
